Here are results for four compounds from ChEMBL document CHEMBL1201862, “PubChem BioAssay data set” (2004).

Common to all, as to assay: NCI anticancer screen, dose series, 48 h
The test system of test [1] is SR.
For test [2], the system named is HT-29.
Test [3] relates to CCRF-CEM.
For test [4], the system named is RPMI-8226.
The test system of test [5] is OVCAR-4.
Test [6] concerns UACC-62.
In test [7] the test system is HCC 2998.
In test [8] the test system is SK-MEL-5.
Test [9] concerns Hs-578T.
The test system of test [10] is SNB-19.
The subject of test [11] is CAKI-1.
The test system of test [12] is M14.
For test [13], the system named is DU-145.
In test [14] the test system is SF-295.
For test [15], the system named is COLO 205.
Test [16] concerns RXF 393.
Test [17] concerns OVCAR-3.
The subject of test [18] is UO-31.
Test [19] relates to SW-620.
The test system of test [20] is SN12C.

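The compound was tested at five concentrations on cells cultured in 96-well plates, with a 48-hour exposure period. GI50 is the concentration that inhibits growth by half.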 Calls of active or inactive are those of the source. No stated cut-off is given here; in the data, active = GI50 up to about 1.1 µM and inactive = higher.

As to `COc1ccc(OC)c2c(=S)c3ccccc3[nH]c12`, the GI50 was 49.5 µM (inactive) in [1]; 64.6 µM (inactive) in test [2]; 35.3 µM (inactive) in test [3]; 37.9 µM (inactive) in test [4]; > 100 µM (inactive) in test [5]; 60.1 µM (inactive) in [6]. The GI50 in test [7] was > 100 µM (inactive); in test [8], 22.2 µM (inactive); in test [9] it was > 100 µM (inactive); in test [10], > 100 µM (inactive); in [11], > 100 µM (inactive); in test [12], > 100 µM (inactive). The GI50 in test [13] is > 100 µM (inactive); in test [14], 92.3 µM (inactive); in test [15] it was 55.2 µM (inactive); in [16] it was 54.6 µM (inactive); in test [17], > 100 µM (inactive); in test [18], 39.4 µM (inactive). Besides, the values for the GI50 in test [19] and in [20] were > 75.3 µM (inactive) and > 100 µM (inactive), respectively.

Take `C=C1CC/C=C(\C)CCC[C@H](C)[C@@H](O)[C@@H]2OC(=O)C(=C)[C@@H]2C[C@H]1O`: the GI50 in test [1] was 4.83 µM (inactive); in test [2], 4.22 µM (inactive); in test [3] it was 1.14 µM (inactive); in test [4], 3.52 µM (inactive); in test [5], 19.1 µM (inactive); in test [6], 8.91 µM (inactive). The GI50 in test [7] was 18.4 µM (inactive); in test [8], 5.05 µM (inactive); in test [9], 7.91 µM (inactive); in [10] it was 14.8 µM (inactive); in test [11], 3.94 µM (inactive); in test [12] it was 4.75 µM (inactive). Besides, the GI50 in test [13] is 4.57 µM (inactive); in [14], 17.2 µM (inactive); in [15], 2.83 µM (inactive); in test [16], 4.25 µM (inactive); in [17], 9.12 µM (inactive); in [18] it was 6.22 µM (inactive). The GI50 is 2.22 µM (inactive) in [19] and 5.93 µM (inactive) in test [20].

Consider `O=C(/C=C/c1ccc([N+](=O)[O-])cc1)N1CCN(CCOC(c2ccc(F)cc2)c2ccc(F)cc2)CC1`, for which the GI50 in test [1] was 7.21 µM (inactive); in [2] it was 13 µM (inactive); in [3] it was 7.01 µM (inactive); in test [4] it was 3.78 µM (inactive); in [5], 8.75 µM (inactive); in test [6], 13.8 µM (inactive). In addition, the GI50 is 29.2 µM (inactive) in test [7]; 13.9 µM (inactive) in test [8]; > 100 µM (inactive) in [9]; > 100 µM (inactive) in test [10]; 18.2 µM (inactive) in test [11]; 6.35 µM (inactive) in test [12]. Further, the GI50 is 18.4 µM (inactive) in [13]; 69.5 µM (inactive) in [14]; 11.5 µM (inactive) in [15]; 9.44 µM (inactive) in test [16]; > 100 µM (inactive) in test [17]; 14.3 µM (inactive) in [18]. The GI50 is > 100 µM (inactive) in test [19] and 4.04 µM (inactive) in test [20].

As for `Cc1c2cc[n+](C)cc2c(C)c2c1sc1ccccc12`, the GI50 is 0.246 µM (active) in [1]; 3.85 µM (inactive) in test [2]; 0.776 µM (active) in test [3]; 1.22 µM (inactive) in test [4]; 3.4 µM (inactive) in test [5]; 1.63 µM (inactive) in test [6]. For the same compound, the GI50 is 1.44 µM (inactive) in test [7]; 1.39 µM (inactive) in test [8]; 0.069 µM (active) in test [9]; 0.205 µM (active) in test [10]; 3.46 µM (inactive) in test [11]; 4.73 µM (inactive) in [12]. The GI50 in test [13] is 1.48 µM (inactive); in test [14] it was 0.143 µM (active); in [15], 1.07 µM (active); in [16], 1.56 µM (inactive); in test [17], 1.29 µM (inactive); in test [18], 8.69 µM (inactive). Also, the GI50 in test [19] was 0.553 µM (active); in test [20], 0.132 µM (active).
